Experimental data published in the supplement of paper PMC10307832.

Assays:
Test in all cases: relative viability (nuclei count vs DMSO), 5 days (fraction); higher = more cells survive
[1] = compound: C#Cc1cccc(Nc2ncnc3cc(OCCOC)c(OCCOC)cc23)c1 [Erlotinib] + COc1cccc2cc(-c3nc([C@H]4CC[C@H](C(=O)O)CC4)n4ncnc(N)c34)[nH]c12 [OSI-027] (partner 0.5 µM)
Summary of the method: (§1)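 Five library-drug doses in √10 steps were combined with a fixed anchor-drug dose, or a single drug was given alone, by pin tool to lung cancer cell lines in 1536-well plates the day after seeding. Nuclei were stained and counted after 5 days. Relative viability is the nuclei count in treated wells over that in vehicle wells, taken as the median of duplicate plates.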

[2] = compound: C#Cc1cccc(Nc2ncnc3cc(OCCOC)c(OCCOC)cc23)c1 [Erlotinib] + Nc1nc2[nH]cc(CCc3ccc(C(=O)N[C@@H](CCC(=O)O)C(=O)O)cc3)c2c(=O)[nH]1 [Pemetrexed] (partner 0.2 µM)
Summary of the method: as §1

[3] = compound: O=C(Nc1c[nH]nc1-c1nc2ccc(CN3CCOCC3)cc2[nH]1)NC1CC1 [AT9283] + CCNC(=O)c1noc(-c2cc(C(C)C)c(O)cc2O)c1-c1ccc(CN2CCOCC2)cc1 [Luminespib] (partner 0.01 µM)
Summary of the method: as §1

[4] = compound: O=C(Nc1c[nH]nc1-c1nc2ccc(CN3CCOCC3)cc2[nH]1)NC1CC1 [AT9283] + Cc1nc(Nc2ncc(C(=O)Nc3c(C)cccc3Cl)s2)cc(N2CCN(CCO)CC2)n1 [Dasatinib] (partner 0.075 µM)
Summary of the method: as §1

[5] = compound: C#Cc1cccc(Nc2ncnc3cc(OCCOC)c(OCCOC)cc23)c1 [Erlotinib] + CC(C)C[C@H](NC(=O)[C@H](Cc1ccccc1)NC(=O)c1cnccn1)B(O)O [Bortezomib] (partner 0.002 µM)
Summary of the method: as §1

Row | Cell Line | relative viability ([1]; first compound 0.02 µM) | relative viability ([1]; first compound 0.2 µM) | relative viability ([1]; first compound 0.6325 µM) | relative viability ([1]; first compound 2 µM) | relative viability ([2]; first compound 0.02 µM) | relative viability ([2]; first compound 0.2 µM) | relative viability ([2]; first compound 0.6325 µM) | relative viability ([2]; first compound 2 µM) | relative viability ([3]; first compound 0.003 µM) | relative viability ([3]; first compound 0.03 µM) | relative viability ([3]; first compound 0.09487 µM) | relative viability ([3]; first compound 0.3 µM) | relative viability ([4]; first compound 0.003 µM) | relative viability ([4]; first compound 0.03 µM) | relative viability ([4]; first compound 0.09487 µM) | relative viability ([4]; first compound 0.3 µM) | relative viability ([5]; first compound 0.02 µM) | relative viability ([5]; first compound 0.2 µM) | relative viability ([5]; first compound 0.6325 µM) | relative viability ([5]; first compound 2 µM)
1 | NCI-H1993 | 0.6 | 0.534 | 0.555 | 0.699 | 0.63 | 0.466 | 0.544 | 0.564 | 0.977 | 0.521 | 0.523 | 0.45 | 0.618 | 0.557 | 0.462 | 0.448 | 1.01 | 0.698 | 0.809 | 0.739
2 | NCI-H23 | 0.769 | 0.519 | 0.509 | 0.407 | 0.774 | 0.575 | 0.747 | 0.523 | 0.216 | 0.234 | 0.204 | 0.167 | 0.726 | 0.67 | 0.464 | 0.327 | 0.915 | – | 1.32 | 0.917
3 | NCI-H1650 | 0.533 | 0.515 | 0.472 | 0.33 | 0.337 | 0.324 | 0.352 | 0.298 | 0.21 | 0.182 | 0.219 | 0.231 | 0.347 | 0.301 | 0.216 | 0.171 | 0.204 | 0.204 | 0.176 | 0.178
4 | NCI-H2023 | 0.428 | 0.338 | 0.285 | 0.192 | 0.226 | 0.211 | 0.174 | 0.184 | 0.954 | 0.742 | 0.361 | 0.11 | 0.526 | 0.42 | 0.182 | 0.101 | 0.949 | 0.816 | 1.14 | 0.789
5 | CAL-12T | 0.672 | 0.47 | 0.219 | 0.26 | 1.43 | 1.15 | 0.929 | 0.662 | 0.149 | 0.548 | 0.627 | 0.18 | 0.495 | 0.204 | 0.124 | 0.12 | 0.879 | 0.73 | 0.713 | 0.487
6 | LCLC-97TM1 | 0.697 | 0.553 | 0.504 | 0.489 | 0.22 | 0.201 | 0.176 | 0.155 | 0.662 | 0.634 | 0.137 | 0.157 | 0.798 | 0.492 | 0.255 | 0.162 | 0.528 | 0.747 | 0.529 | 0.464
7 | NCI-H322M | 0.533 | 0.483 | 0.406 | 0.394 | 0.604 | 0.548 | 0.521 | 0.507 | 0.864 | 0.541 | 0.405 | 0.41 | 0.257 | 0.236 | 0.224 | 0.223 | 1.21 | 1.17 | 1.12 | 0.57
8 | NCI-H1734 | 0.621 | 0.586 | 0.608 | 0.504 | 0.45 | 0.39 | 0.4 | 0.397 | 0.221 | 0.145 | 0.165 | 0.18 | 0.332 | 0.301 | 0.187 | 0.158 | 1.1 | 0.955 | 1.17 | 0.961
9 | NCI-H1437 | 0.856 | 0.919 | 0.832 | 0.716 | 0.33 | 0.33 | 0.395 | 0.27 | 1.26 | 1.12 | 0.681 | 0.344 | 0.342 | 0.379 | 0.224 | 0.114 | 0.482 | 0.499 | 0.57 | 0.393
